Some test systems named below: BT-549; DU-145; NCI-H23; UACC-257; A549; M14; Malme-3M; UACC-62; HOP-92; RXF 393; MCF7; NCI/ADR-RES; HCT-15; TK-10; MDA-N; NCI-H226; HL-60; SR; HCC 2998.
What all share (assay): inhibition of tumour cell growth, NCI panel, 48 h

The record followed here is ChEMBL document CHEMBL1201862, “PubChem BioAssay data set” (2004).

The structures appear in SMILES notation.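 The compound was tested at five concentrations on cells cultured in 96-well plates, with a 48-hour exposure period. Abbreviation: GI50, concentration required for 50% inhibition of growth.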 The source made the active and inactive calls. Rule as the data show it: active = GI50 up to about 1.1 µM and inactive = higher.

Take `O=c1c2ccccc2sc2c(CO)ccc(NCCN3CCCCC3)c12`: the GI50 in the experiment with BT-549 was 10.8 µM (inactive); with DU-145, 2.54 µM (inactive); in the experiment on NCI-H23 it was 2.96 µM (inactive); with UACC-257 it was 2.07 µM (inactive); in the experiment with A549, 3.46 µM (inactive); in the experiment on M14, 1.93 µM (inactive). Moreover, the GI50 in the experiment with Malme-3M is 2.24 µM (inactive); in the experiment on UACC-62, 4.33 µM (inactive); in the experiment with HOP-92 it was 5.83 µM (inactive); with RXF 393 it was 2.39 µM (inactive); with MCF7, 2.99 µM (inactive); in the experiment on NCI/ADR-RES, 2.64 µM (inactive). Also, the GI50 in the experiment on HCT-15 was 3.56 µM; in the experiment on TK-10 it was 3.48 µM (inactive); in the experiment on MDA-N, 3.08 µM (inactive); in the experiment with NCI-H226 it was 2.85 µM (inactive); in the experiment with HL-60, 3.08 µM (inactive); with SR it was 0.497 µM (active).

On to `Nc1nc(SCC(=O)c2ccc(Br)cc2)c2nc[nH]c2n1`, for which the GI50 in the experiment with BT-549 was 27 µM (inactive); in the experiment on DU-145 it was 27.5 µM (inactive); with NCI-H23, 45.2 µM (inactive); with UACC-257, 30.5 µM (inactive); with A549, 55 µM (inactive); in the experiment with M14, 40.5 µM (inactive). The GI50 in the experiment on Malme-3M is 29.4 µM (inactive); in the experiment on UACC-62, 37.7 µM (inactive); in the experiment on HOP-92, 17.3 µM (inactive); in the experiment with RXF 393, 41.9 µM (inactive); in the experiment with MCF7, 56.4 µM (inactive); in the experiment with NCI/ADR-RES, 27.4 µM (inactive). The GI50 is 30.1 µM in the experiment with HCT-15; 20.8 µM (inactive) in the experiment on TK-10; 34.8 µM (inactive) with MDA-N; 27.1 µM (inactive) in the experiment with NCI-H226; 25.3 µM (inactive) with HL-60; 17.9 µM (inactive) with SR.

For the compound `O=S(=O)(O)C(c1ccccc1)C(O)c1ccccc1` (stereo not drawn), the GI50 with BT-549 is > 100 µM (inactive); in the experiment with DU-145, > 100 µM (inactive); in the experiment on NCI-H23 it was > 100 µM (inactive); in the experiment on UACC-257, 46.5 µM (inactive); in the experiment with A549 it was > 100 µM (inactive); in the experiment with M14 it was > 100 µM (inactive). Moreover, the GI50 with Malme-3M, in the experiment on UACC-62, in the experiment with HOP-92, in the experiment with RXF 393, in the experiment on MCF7 and in the experiment with NCI/ADR-RES was > 100 µM (inactive) in each case. For the same compound, the GI50 in the experiment on HCT-15 is above 100 µM; in the experiment with TK-10 it was > 100 µM (inactive); with MDA-N, > 100 µM (inactive); with NCI-H226 it was > 100 µM (inactive); in the experiment with HL-60 it was > 100 µM (inactive); in the experiment with SR it was > 100 µM (inactive).

With `CC(=O)O[C@@H](c1nccn1Cc1ccccc1)[C@H]1OC(C)(C)O[C@@H]1[C@H]1COC(C)(C)O1`, the GI50 in the experiment with BT-549, with DU-145, with NCI-H23, with UACC-257, in the experiment with A549 and with Malme-3M was > 100 µM (inactive) in each case. Also, the GI50 with UACC-62 was > 100 µM (inactive); in the experiment with HOP-92, > 100 µM (inactive); in the experiment on RXF 393, > 100 µM (inactive); in the experiment on MCF7 it was > 100 µM (inactive); in the experiment on NCI/ADR-RES, > 100 µM (inactive); with HCT-15, above 100 µM. Further, the GI50 with TK-10 is > 100 µM (inactive); in the experiment on MDA-N, > 100 µM (inactive); in the experiment on NCI-H226, > 100 µM (inactive); in the experiment with HL-60, > 100 µM (inactive); with HCC 2998, > 100 µM (inactive); with SR, > 10 µM (inactive).

Regarding `O=c1[nH]c2nc3ccccc3c(=O)n2/c1=C/c1ccco1`, the GI50 in the experiment with BT-549, with DU-145, in the experiment on NCI-H23, with UACC-257, in the experiment on A549 and in the experiment on M14 was > 100 µM (inactive) each time. Further, the GI50 in the experiment with Malme-3M was > 100 µM (inactive); in the experiment on UACC-62, > 100 µM (inactive); with HOP-92, > 100 µM (inactive); with MCF7, 4.2 µM (inactive); with NCI/ADR-RES, > 100 µM (inactive); with HCT-15 it was above 100 µM. The GI50 in the experiment with TK-10, in the experiment on MDA-N, in the experiment on NCI-H226, in the experiment with HL-60, in the experiment on HCC 2998 and in the experiment with SR was > 100 µM (inactive) in each case.

As to `O=C1Nc2ccccc2/C1=N/N1C(=O)/C(=C/c2ccccc2S)N=C1c1ccccc1`, the GI50 was 91 µM (inactive) in the experiment with BT-549; > 100 µM (inactive) in the experiment with DU-145; 57.7 µM (inactive) with NCI-H23; > 100 µM (inactive) in the experiment on UACC-257; 89.5 µM (inactive) in the experiment on A549; > 100 µM (inactive) in the experiment on M14. The GI50 was > 100 µM (inactive) in the experiment on Malme-3M; 90.6 µM (inactive) in the experiment with UACC-62; 77.6 µM (inactive) in the experiment on HOP-92; 68.9 µM (inactive) with RXF 393; 58.7 µM (inactive) with MCF7; > 100 µM (inactive) in the experiment with NCI/ADR-RES. The GI50 is 83 µM with HCT-15; > 100 µM (inactive) with TK-10; 82.4 µM (inactive) in the experiment on MDA-N; 40.9 µM (inactive) in the experiment on HL-60; > 100 µM (inactive) in the experiment with HCC 2998; 21.3 µM (inactive) in the experiment with SR.

`CC(C)CC(NC(=O)C(CI)Cc1ccccc1)C(=O)Nc1ccccc1` (stereo not drawn): the GI50 with BT-549 is 7.76 µM (inactive); in the experiment with DU-145, > 100 µM (inactive); with NCI-H23, > 100 µM (inactive); in the experiment with UACC-257 it was > 100 µM (inactive); in the experiment on A549 it was > 100 µM (inactive); with M14, > 100 µM (inactive). The GI50 in the experiment on Malme-3M, in the experiment with UACC-62, in the experiment on HOP-92, in the experiment on RXF 393, with MCF7 and with NCI/ADR-RES was > 100 µM (inactive) throughout. The GI50 is above 100 µM with HCT-15; > 100 µM (inactive) with TK-10; > 100 µM (inactive) with MDA-N; > 100 µM (inactive) in the experiment with HL-60; > 100 µM (inactive) with HCC 2998; 68.9 µM (inactive) in the experiment on SR.

With `CC1(CCc2ccccc2)CC1(Br)Br` (stereo not drawn), the GI50 was > 100 µM (inactive) in the experiment on BT-549; 57.9 µM (inactive) with DU-145; 43.9 µM (inactive) with NCI-H23; 25.8 µM (inactive) in the experiment on UACC-257; 32.9 µM (inactive) in the experiment on A549; 44.8 µM (inactive) in the experiment with M14. Also, the GI50 is 22.5 µM (inactive) in the experiment on Malme-3M; 52 µM (inactive) in the experiment on UACC-62; 13 µM (inactive) in the experiment with HOP-92; 20.7 µM (inactive) in the experiment with RXF 393; 38.8 µM (inactive) with MCF7; 88.9 µM (inactive) in the experiment on NCI/ADR-RES. Further, the GI50 in the experiment with HCT-15 is 54.8 µM; with MDA-N, 32.7 µM (inactive); in the experiment with NCI-H226, 24 µM (inactive); in the experiment on HL-60 it was 21.5 µM (inactive); in the experiment with HCC 2998, 40.9 µM (inactive); in the experiment on SR it was 19.8 µM (inactive).

As for `O=C1Nc2ccccc2/C1=N/NC(=S)NCc1ccccn1`, the GI50 with BT-549 was 1.09 µM (active); with DU-145, 0.698 µM (active); with NCI-H23 it was 0.533 µM (active); with UACC-257, 0.47 µM (active); in the experiment with A549 it was 0.466 µM (active); with M14, 0.312 µM (active). In addition, the GI50 is 2.29 µM (inactive) with Malme-3M; 0.341 µM (active) in the experiment with UACC-62; 1.11 µM (active) in the experiment on HOP-92; < 0.01 µM (active) in the experiment with MCF7; 0.418 µM (active) in the experiment on NCI/ADR-RES; 0.0326 µM in the experiment with HCT-15. In addition, the GI50 was 2.52 µM (inactive) with TK-10; 0.975 µM (active) in the experiment on MDA-N; 0.604 µM (active) in the experiment with NCI-H226; < 0.01 µM (active) in the experiment on HL-60; 0.975 µM (active) in the experiment on HCC 2998; < 0.01 µM (active) in the experiment on SR.

Consider `Fc1cccc(F)c1C1SCc2nc3ccc(Cl)cc3n21` (stereo not drawn), for which the GI50 in the experiment on BT-549, with DU-145, in the experiment with NCI-H23, in the experiment with UACC-257, in the experiment with A549 and in the experiment with M14 was > 100 µM (inactive) in each case. The GI50 in the experiment on Malme-3M is > 100 µM (inactive); in the experiment on UACC-62 it was > 100 µM (inactive); in the experiment on HOP-92 it was > 100 µM (inactive); with RXF 393, > 100 µM (inactive); in the experiment on MCF7, > 83 µM (inactive); in the experiment with NCI/ADR-RES, > 100 µM (inactive). In addition, the GI50 is above 100 µM with HCT-15; > 100 µM (inactive) with TK-10; > 100 µM (inactive) in the experiment on MDA-N; 40.5 µM (inactive) in the experiment on HL-60; > 100 µM (inactive) in the experiment on HCC 2998; 48.4 µM (inactive) in the experiment on SR.

Regarding `COc1c(C(=O)O)cccc1-c1cccc(C(=O)NCCN(CCNC(=O)c2cccc(-c3cccc(C(=O)O)c3OC)c2OC)CCNC(=O)c2cccc(-c3cccc(C(=O)O)c3OC)c2OC)c1OC`, the GI50 in the experiment with BT-549 was 52.1 µM (inactive); in the experiment on DU-145, 39 µM (inactive); with NCI-H23 it was 64.7 µM (inactive); with UACC-257 it was 62.7 µM (inactive); in the experiment with A549 it was 49.5 µM (inactive); with Malme-3M, 23.4 µM (inactive). The GI50 is 25.8 µM (inactive) in the experiment with UACC-62; 67.1 µM (inactive) with HOP-92; 28.6 µM (inactive) with RXF 393; 37.8 µM (inactive) in the experiment on MCF7; > 100 µM (inactive) in the experiment with NCI/ADR-RES; 65.2 µM with HCT-15. In addition, the GI50 in the experiment with TK-10 is > 100 µM (inactive); in the experiment on MDA-N it was 5.58 µM (inactive); in the experiment on NCI-H226 it was 32.7 µM (inactive); in the experiment with HL-60, 18.2 µM (inactive); in the experiment with HCC 2998 it was 31.7 µM (inactive); in the experiment on SR, 10.7 µM (inactive).
